In patent US20100311642A1, “USE OF V2 RECEPTOR ANTAGONISTS IN COMBINATION WITH VASO PRESSINERGIC AGNOSTS” (Ferring B.V., priority 2007, published 2010):
“Also recorded” adds a separate entry of the source. Positions of bridges follow the written chain, without caps; N, C: chain ends. Residues, ends and D or L forms follow the SMILES beside them.

How the values were obtained:
[1] = biological target: T1, human V1a receptor (hV1aR) (Homo sapiens, UniProt P37288); test: Agonist transcriptional reporter gene assay, human V1a receptor; type: cell-based; settings: hV1a, HEK-293 reporter gene; for EC50: 5 hours
T1 construct: expressed in transfected cells; host or cells: HEK-293
T1 sequence (P37288 whole entry): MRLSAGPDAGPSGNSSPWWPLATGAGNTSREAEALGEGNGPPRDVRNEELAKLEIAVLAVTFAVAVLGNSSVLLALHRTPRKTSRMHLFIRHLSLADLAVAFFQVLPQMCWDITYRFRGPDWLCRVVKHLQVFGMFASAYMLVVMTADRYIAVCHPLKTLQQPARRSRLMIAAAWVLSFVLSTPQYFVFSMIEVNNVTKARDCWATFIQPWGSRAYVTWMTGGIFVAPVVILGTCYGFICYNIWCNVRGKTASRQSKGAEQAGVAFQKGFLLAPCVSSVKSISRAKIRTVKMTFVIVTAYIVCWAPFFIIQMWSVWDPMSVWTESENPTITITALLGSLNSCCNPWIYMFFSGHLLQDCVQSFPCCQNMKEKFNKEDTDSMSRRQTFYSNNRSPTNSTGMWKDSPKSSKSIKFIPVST

[2] = biological target: T2, human V2 receptor (hV2R) (Homo sapiens, UniProt P30518); test: Agonist transcriptional reporter gene assay, human V2 receptor; type: cell-based; settings: hV2, HEK-293 reporter gene; for EC50: 5 hours
T2 construct: expressed in transfected cells; host or cells: HEK-293
T2 sequence (P30518 whole entry): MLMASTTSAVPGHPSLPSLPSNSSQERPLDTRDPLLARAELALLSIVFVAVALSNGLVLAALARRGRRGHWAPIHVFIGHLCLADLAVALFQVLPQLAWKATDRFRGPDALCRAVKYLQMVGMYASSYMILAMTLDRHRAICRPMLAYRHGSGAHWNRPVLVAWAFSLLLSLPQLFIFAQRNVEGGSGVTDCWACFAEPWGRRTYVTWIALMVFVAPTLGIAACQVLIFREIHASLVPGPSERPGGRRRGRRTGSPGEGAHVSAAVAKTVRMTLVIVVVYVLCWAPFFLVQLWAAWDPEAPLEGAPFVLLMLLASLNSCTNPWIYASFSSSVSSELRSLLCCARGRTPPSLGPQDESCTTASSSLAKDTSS

[3] = biological target: T3, rat V2 receptor (rV2R) (Rattus norvegicus, UniProt Q00788); test: Antagonist transcriptional reporter gene assay, rat V2 receptor; type: cell-based; settings: rV2, HEK-293 reporter gene, vs AVP; for Ki: Ki calculated from IC50, read-out: Geomean Ki
T3 construct: expressed in transfected cells; host or cells: HEK-293
T3 sequence (Q00788 whole entry): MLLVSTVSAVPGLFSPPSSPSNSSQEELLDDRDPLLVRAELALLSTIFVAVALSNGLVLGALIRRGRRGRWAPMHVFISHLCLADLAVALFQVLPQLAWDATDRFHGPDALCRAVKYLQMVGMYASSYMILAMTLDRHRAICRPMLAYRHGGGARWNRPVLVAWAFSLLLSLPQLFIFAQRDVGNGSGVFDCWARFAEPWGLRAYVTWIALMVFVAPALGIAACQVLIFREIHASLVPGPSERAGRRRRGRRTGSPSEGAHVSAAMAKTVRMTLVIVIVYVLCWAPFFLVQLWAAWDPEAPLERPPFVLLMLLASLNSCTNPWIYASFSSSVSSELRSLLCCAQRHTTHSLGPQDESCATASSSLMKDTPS
Procedure: (§1) Agonist activity of compounds on the human V2 receptor (hV2R) and the rat V2 receptor (rV2R) was determined in a transcriptional reporter gene assay in which HEK-293 cells were transiently transfected with either the human or rat V2 receptor, and a reporter DNA containing cyclic-AMP responsive promoter elements regulating expression of firefly luciferase. See Castarion, M. J., Spevak, W., Biochem Biophys Res Commun.1994 Jan.
(§2) Antagonist activity of compounds on the human V2 receptor (hV2R) and the rat V2 receptor (rV2R) was determined in a transcriptional reporter gene assay as in section III.A; see Castañón, M. J. et al. supra. […] Ki values were calculated from IC50 values.

[4] = biological target: T4, rat V1a receptor (rV1aR) (Rattus norvegicus, UniProt P30560); test: Antagonist transcriptional reporter gene assay, rat V1a receptor; type: cell-based; settings: rV1a, HEK-293 reporter gene, vs AVP; for Ki: Ki calculated from IC50, read-out: Geomean Ki
T4 construct: expressed in transfected cells; host or cells: HEK-293
T4 sequence (P30560 whole entry): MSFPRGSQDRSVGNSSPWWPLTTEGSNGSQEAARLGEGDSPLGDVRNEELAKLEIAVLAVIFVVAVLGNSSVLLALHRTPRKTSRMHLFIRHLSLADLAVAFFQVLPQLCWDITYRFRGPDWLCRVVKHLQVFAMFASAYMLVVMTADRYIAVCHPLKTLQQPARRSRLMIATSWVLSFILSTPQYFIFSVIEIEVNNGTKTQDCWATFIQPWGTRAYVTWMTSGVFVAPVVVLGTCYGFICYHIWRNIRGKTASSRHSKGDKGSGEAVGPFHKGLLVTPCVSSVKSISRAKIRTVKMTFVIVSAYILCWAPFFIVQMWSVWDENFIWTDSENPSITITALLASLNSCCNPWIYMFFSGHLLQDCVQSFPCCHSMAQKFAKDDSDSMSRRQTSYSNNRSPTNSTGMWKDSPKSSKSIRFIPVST
Procedure: (§3) Agonist activity of compounds on the human V1a receptor (hV1aR) and the rat V1a receptor (rV 1 aR) was determined in a transcriptional reporter gene assay in which HEK-293 cells were transiently co-transfected with either the human or rat V1a receptor, and a reporter DNA containing intracellular calcium responsive promoter elements regulating expression of firefly luciferase.
(§4) Antagonist activity of compounds on the human V1a receptor (hV1aR) and the rat V1a receptor (rV 1 aR) was determined in a transcriptional reporter gene assay as in section III.A; see Boss, V. et al. supra. […] Ki values were calculated from IC50 values.

[5] = biological target: T2, human V2 receptor (hV2R); test: Antagonist transcriptional reporter gene assay, human V2 receptor; type: cell-based; settings: hV2, HEK-293 reporter gene, vs AVP
Procedure: as §1, §2

[6] = biological target: T1, human V1a receptor (hV1aR); test: Antagonist transcriptional reporter gene assay, human V1a receptor; type: cell-based; settings: hV1a, HEK-293 reporter gene, vs AVP
Procedure: as §3, §4

[7] = system: venular microvessels in rat mesentery; test: Rat mesenteric post-capillary venule permeability (hydraulic conductivity Lp, PAF); settings: PAF 10 nM
Procedure: We tested the hypothesis that the selective V2 receptor agonist desmopressin would potentiate the increase in microvessel permeability induced by platelet activating factor [PAF], an inflammatory mediator involved in sepsis.
Method: Individual venular microvessels in rat mesentery were cannulated and perfused with mammalian Ringer containing 10 mg/ml albumin to measure hydraulic conductivity (Lp) by the modified Landis technique. The vessels were then exposed to PAF (10 nM) with monitoring of hydraulic conductivity (Lp). The same vessels are then exposed to a selective V2 receptor agonist, desmopressin, followed by a second exposure to PAF with monitoring of hydraulic conductivity (Lp).
Additional information about microvascular permeability model and method available in Curry, FE, “The Measurement of Hydraulic Conductivity”, Microcirculatory Technology, Academic Press, 1986, pp 429-446.

[8] = system: sheep model of sepsis; test: Sheep model of sepsis (smoke inhalation + Pseudomonas aeruginosa); type: in vivo; settings: septic sheep, continuous i.v. infusion titrated, 24 hours
Source text: A. Description of Model & Experimental Design • Septic shock is caused by hypotension secondary to vasodilation. […] The combination of a selective V2 receptor agonist, desmopressin, and a selective V1a receptor agonist models to some extent the non-selective V1a/V2 receptor agonist activity of vasopressin and other related compounds having non-selective activity.
Method: Sheep are surgically instrumented ahead of the study. After obtaining baseline data, they are anesthetized and insufflated with 48 breaths of cotton smoke and 10^11 colony forming units of Pseudomonas aeruginosa instilled into their airways via a tracheostomy. The sheep are then placed on a ventilator and awakened for the study. They are resuscitated with Ringer's solution to maintain left atrial and central venous pressures and hematocrit at baseline levels. If, despite fluid management, mean arterial pressure (MAP) falls by 10 mm Hg from baseline, a continuous intravenous infusion of AVP, the selective V1a receptor agonist, or the selective V1a receptor agonist+the selective V2 agonist desmopressin is initiated and titrated to keep MAP within this limit, except in a septic control group and in a non-septic sham group. Parameters measured include Mean Arterial Pressure (a measure of vasodilation/hypotension) and Fluid Balance (a measure of vascular leak).
Additional information about sepsis model and method available in Murakami K, Bjertnaes L T, Schmalstieg F C, McGuire R, Cox R A, Hawkins H K, Herndon D N, Traber L D, Traber D L (2002): A novel animal model of sepsis after acute lung injury in sheep. Crit. Care Med, 30:2083-2090.

[9] = biological target: T3, rat V2 receptor (rV2R); test: Agonist transcriptional reporter gene assay, rat V2 receptor; type: cell-based; settings: rV2, HEK-293 reporter gene
[10] = biological target: T4, rat V1a receptor (rV1aR); test: Agonist transcriptional reporter gene assay, rat V1a receptor; type: cell-based; settings: rV1a, HEK-293 reporter gene
[11] = Ki calculated from IC50, read-out: Geomean Ki

In the case of `NCCCC[C@H](NC(=O)[C@@H]1CCCN1C(=O)[C@@H]1CSSC[C@H](NC(=O)CNC(=O)CNC(=O)CN)C(=O)N[C@@H](Cc2ccc(O)cc2)C(=O)N[C@@H](Cc2ccccc2)C(=O)N[C@@H](CCC(N)=O)C(=O)N[C@@H](CC(N)=O)C(=O)N1)C(=O)NCC(N)=O` [H-Gly3-LVP, terlipressin, terlipressin] (H-GGGCYFQNCPKG-NH2; disulfide 4-9), the Efficacy [1] is reported as 66%, the EC50 [1] is reported as 124 nM and the Efficacy [2] is reported as 79%. It also gave an EC50 [2] of 121 nM.

`Cc1ccccc1C(=O)Nc1ccc(C(=O)N2CCCC(N(C)C)c3ccccc32)cc1` (stereo not drawn) [mozavaptan] was tested, and the “Efficacy Antag” value [3] was 85%, the “Efficacy Antag” value [4] was 40% and the “Efficacy Antag” value [5] was 107%. For the same compound, the “Efficacy Antag” value [6] was 85%.

In the case of `Cc1ccccc1C(=O)Nc1ccc(C(=O)N2CCCC(O)c3cc(Cl)ccc32)c(C)c1` (stereo not drawn) [tolvaptan], the “Efficacy Antag” value [3] is reported as 102%, the Ki [3] is reported as 3.3 nM and the “Efficacy Antag” value [4] is reported as 26%. The Ki [4] was > 338 nM, the “Efficacy Antag” value [5] was 97% and the “Efficacy Antag” value [6] was 101%.

With `CCOc1ccc2c(c1)C1(CCC(OCCN3CCOCC3)CC1)C(=O)N2S(=O)(=O)c1ccc(C(=O)NC(C)(C)C)cc1OC` (stereo not drawn) [satavaptan] the “Efficacy Antag” value [3] was 100%, the Ki [3] was 0.6 nM and the “Efficacy Antag” value [4] was 6%. The Ki [4] was > 338 nM, the “Efficacy Antag” value [5] was 109% and the Ki [5, 11] was 1.5 nM. For the same compound, the “Efficacy Antag” value [6] was 10% and the Ki [6, 11] was > 950 nM.

In the case of `NC(=O)CC[C@@H]1NC(=O)[C@H](Cc2ccccc2)NC(=O)[C@H](Cc2ccc(O)cc2)NC(=O)CCSSC[C@@H](C(=O)N2CCC[C@H]2C(=O)N[C@H](CCCN=C(N)N)C(=O)NCC(N)=O)NC(=O)[C@H](CC(N)=O)NC1=O` [desmopressin], the “peak Lp with PAF in presence of desmopressin relative to peak Lp with PAF alone” value ([7]; desmopressin 10 pM for 40 minutes) is reported as “not increased”, the “peak Lp with PAF in presence of desmopressin relative to peak Lp with PAF alone” value ([7]; desmopressin 30 pM for 40 minutes, ±0.4 SEM, n=8) is reported as 2.1 fold and the “peak Lp with PAF in presence of desmopressin relative to peak Lp with PAF alone” value ([7]; desmopressin 100 pM for 40 minutes, ±0.9 SEM, n=5) is reported as 2.8 fold. The “Fluid retention / vascular leak (fluid balance)” value [8] was “decreased the effectiveness of the V1a agonist to the level of AVP” and the “Mean arterial pressure (MAP)” value [8] was “decreased the effectiveness of the V1a agonist to the level of AVP”.

For “[Pmp1,D-Ile2,Ile4,Arg8]vasopressin [[Pmp1, D-Ile2, Ile4]AVP]”, the “Efficacy Antag” value [3] was 97%.

Compound `NCCCC[C@H](NC(=O)[C@@H]1CCCN1C(=O)[C@@H]1CSSC[C@H](N)C(=O)N[C@@H](Cc2ccc(O)cc2)C(=O)N[C@@H](Cc2ccccc2)C(=O)N[C@@H](CCC(N)=O)C(=O)N[C@@H](CC(N)=O)C(=O)N1)C(=O)NCC(N)=O` [Lysine Vasopressin, LVP, lysine vasopressin] has an Efficacy [1] of 98%, an EC50 [1] of 0.94 nM and an Efficacy [9] of 99%. The EC50 ([9]; 5 hours) was 1.11 nM, the Efficacy [10] was 99% and the EC50 ([10]; 5 hours) was 0.2 nM. For the same compound, the Efficacy [2] was 92% and the EC50 [2] was 0.28 nM.

Work on “ornithine vasopressin [[Orn8] Vasopressin, OVP]” yielded an Efficacy [9] of 111%.

For `NC(=O)CC[C@@H]1NC(=O)[C@H](Cc2ccccc2)NC(=O)[C@H](Cc2ccc(O)cc2)NC(=O)[C@@H](N)CSSC[C@@H](C(=O)N2CCC[C@H]2C(=O)N[C@@H](CCCN=C(N)N)C(=O)NCC(N)=O)NC(=O)[C@H](CC(N)=O)NC1=O` [Arginine vasopressin, AVP, arginine vasopressin], the Efficacy [9] was 100%, the “Fluid retention / vascular leak (fluid balance)” value [8] was “showed symptoms of vascular leak syndrome; also recorded: less effective” and the “Mean arterial pressure (MAP)” value [8] was “efficacious in maintaining mean arterial pressure; also recorded: less effective”.

“[Pmp1,D-Ile2,Ile4,Arg8]vasopressin-(1-8)-OH [[Pmp1, D-Ile2, Ile4]AVP-(1-8)-OH]” was tested, and the “Efficacy Antag” value [3] was 105%.

`Cc1nc2c([nH]1)-c1ccccc1N(C(=O)c1ccc(NC(=O)c3ccccc3-c3ccccc3)cc1)CC2` [conivaptan] was tested, and the “Efficacy Antag” value [3] was 97%, the “Efficacy Antag” value [4] was 99% and the “Efficacy Antag” value [5] was 92%. The “Efficacy Antag” value [6] was 81%.
